# Source: patent US11186587B2, “Compound as ACC inhibitor and use thereof” (NANJING SANHOME PHARMACEUTICAL CO., LTD., priority 2017, dated 2021)
# How the values were obtained:
# ACC1 = ACC1 (Homo sapiens (Human), UniProt Q13085); experiment: ACC1 enzyme activity assay (ADP-Glo); assay type: biochemical; conditions: ACC1 enzyme 2 nM working solution, room temperature
# Protocol: Compound preparation: the compounds of the present disclosure prepared in the above examples and the control compound were respectively formulated into 10 mM with DMSO for use.
# Preparation of 1× reaction buffer (pH=7.4): HEPES stock solutions (1 M), MgCl2 (1 M), BRIJ-35 (10%), potassium citrate buffer (1 M), BSA (10 mg/mL) and DTT (500 mM) were formulated to enzyme reaction buffer containing HEPES (50 mM), MgCl2 (2 mM), BRIJ-35 (0.01%), potassium citrate buffer (2 mM), BSA (50 Gg/mL) and DTT (2 mM).
# 4.5 μL of 2.2×ACC1 enzyme (2 nM) working solution was added to a 384-well plate; and then 0.5 μL of different concentrations of compound were added. The mixture was incubated at room temperature for 15 min.
# Negative control group: menstruum containing 5% DMSO; positive control group: menstruum containing 100 nM ND-630. The average values of each concentration and the positive and negative controls were calculated, and the standard deviation was calculated. […] The inhibition rate data was fitted by nonlinear regression equation to calculate IC50 of each compound. The nonlinear regression equation was Y=lowest value+(highest value−lowest value)/(1+10^((Log IC50−X)×HillSlope)), among which X is logarithm of the compound concentration and Y is inhibition percent (%).
# [1] = system: HFD-CCL4 induced NASH model; experiment: Drug efficacy on NASH and liver fibrosis induced by HFD-CCL4; assay type: in vivo; conditions: C57BL/6 mice, HFD 10 weeks + CCL4 4 weeks; intragastric once a day for 4 weeks; Example 25 10 mg/kg/d, ND-630 30 mg/kg/d; H&E staining
# Protocol: High-fat diet (HFD) was used to induce liver steatosis in animals, and then carbon tetrachloride (CCL4) was used to induce liver inflammation, necrosis, and liver fibrosis. This model was similar to the human NASH disease process and pathological phenomenon. The purpose of this experiment was to evaluate the efficacy of the compound of the disclosure in a NASH model of C57BL/6 mice induced by HFD-CCL4, with ND-630 as a control compound. HFD-CCL4 inducement was performed for 10 weeks and drug intervention was performed for 4 weeks. The therapeutic effects of the drug on NASH and liver fibrosis were observed.
# The test compounds in the examples of the present disclosure and ND-630 were diluted to 0.3 mg/mL, 1 mg/mL, 3 mg/mL with PEG200:0.2M Na2HPO4-NaH2PO4 buffer (35:65), which was prepared just before use.
# HFD-CCL4 induced NASH model in C57BL/6 mice: the animals were first housed in the SPF barrier of the KCI Experimental Animal Center for 3-7 days, and then the animals were changed to HFD feeding in a cycle of 10 weeks. […]
# The left liver lobe sample was fixed with 10% formalin and embedded in paraffin to prepare 5 μm sections for haematoxylin-eosin (H&E) staining. Hematoxylin-eosin staining can detect tissue inflammation, fat deposition, vacuolar degeneration and tissue fibrosis, giving semi-quantitative analysis for the lesion.
# The data were expressed as mean±standard error. […]
smiles,measurement,setting,value
"COc1ccccc1[C@H](Cn1c(=O)n(C(C)(C)C(=O)O)c(=O)c2c(C)c(-c3ncco3)sc21)OC1CCOCC1 [ND-630, 2-[1-[2-(2-methoxyphenyl)-2-(oxecyclo-4-yloxy)ethyl]-5-methyl-6-(1,3-oxazol-2-yl)-2,4-dioxo-1H,2H,3H,4H-thieno[2,3-d]pyrimidin-3-yl]-2-methylpropanoic acid, reference compound]",IC50,ACC1,0.5 nM
same,Hepatic steatosis score (Mean ± SD),[1],0.13 ± 0.32
same,Hepatocyte necrosis score (Mean ± SD),[1],1.00 ± 0.61
